The values below come from patent US6133287A, “Piperidine-indole compounds having 5-HT6 affinity” (Allelix Biopharmaceuticals Inc., priority 1998, dated 2000).

Where a name gives a salt, the structure may show the parent alone. Read-outs that look alike come from different tables or passages of the source.

By Ki is commonly meant a measure of affinity in units of concentration, obtained from inhibition or displacement.

Assay [1] has as its target T1, human 5-HT6 receptor (Homo sapiens, UniProt P50406). The assay is described as follows: Effect of compounds on the cAMP response of human 5-HT6 receptors (stably transfected HEK293 cells, cAMP EIA). Further details: expressed in transfected cells; host or cells: HEK293. The assay is classed as cell-based.
Experimental: The antagonist (or agonist ) property of compounds for human 5-HT6 receptors was determined by testing their effect on cAMP accumulation in stably transfected HEK293 cells.
Human 5-HT6 receptors were cloned and stably expressed in HEK293 cells. These cells were plated in 6 well plates in DMEM/F12 media with 10% fetal calf serum (FCS) and 500 μg/mL G418 and incubated at 37° C. in a CO2 incubator. The cells were allowed to grow to about 70% confluence before initiation of the experiment.
On the day of the experiment, the culture media was removed, and the cells were washed once with serum free medium (SFM). Two mL of SFM+IBMX media was added and incubated at 37° C. for 10 min. The media were removed and fresh SFM+IBMX media containing various compounds, and 1 μM serotonin (as antagonist) were added to the appropriate wells and incubated for 30 min. […]
cAMP content was determined by EIA (enzyme-immunoassay) using the Amersham Biotrak cAMP EIA kit (Amersham RPN 225). […] Briefly, cAMP is determined by the competition between unlabeled cAMP and a fixed quantity of peroxidase-labelled cAMP for the binding sites on anti-cAMP antibody. […] The reaction is stopped by the addition of 100 μL 1.0 M sulfuric acid and the resultant color read by a microtitre plate spectrophotometer at 450 nM within 30 minutes. […]
The target in another assay is human 5-HT7 receptor (Homo sapiens, UniProt P34969). The assay is described as follows: Selectivity of binding to the human 5-HT6 receptor relative to the human 5-HT7 receptor. The settings on record: 5-HT6 vs 5-HT7.
Chain of human 5-HT7 receptor (P34969 whole entry): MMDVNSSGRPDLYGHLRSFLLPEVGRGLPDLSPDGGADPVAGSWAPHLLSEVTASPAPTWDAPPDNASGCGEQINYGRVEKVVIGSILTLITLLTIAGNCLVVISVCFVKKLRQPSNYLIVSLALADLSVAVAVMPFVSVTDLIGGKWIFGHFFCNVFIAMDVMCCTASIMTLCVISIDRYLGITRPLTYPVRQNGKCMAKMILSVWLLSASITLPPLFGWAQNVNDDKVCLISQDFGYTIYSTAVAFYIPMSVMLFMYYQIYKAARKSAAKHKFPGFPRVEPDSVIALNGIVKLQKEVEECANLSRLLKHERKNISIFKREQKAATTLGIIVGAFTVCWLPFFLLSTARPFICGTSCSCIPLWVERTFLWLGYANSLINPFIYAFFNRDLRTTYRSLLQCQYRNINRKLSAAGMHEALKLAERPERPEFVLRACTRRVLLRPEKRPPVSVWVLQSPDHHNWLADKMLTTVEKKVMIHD
Another assay addresses T2, human 5-HT2c receptor (Homo sapiens, UniProt P28335).
T2 sequence (P28335 33-458): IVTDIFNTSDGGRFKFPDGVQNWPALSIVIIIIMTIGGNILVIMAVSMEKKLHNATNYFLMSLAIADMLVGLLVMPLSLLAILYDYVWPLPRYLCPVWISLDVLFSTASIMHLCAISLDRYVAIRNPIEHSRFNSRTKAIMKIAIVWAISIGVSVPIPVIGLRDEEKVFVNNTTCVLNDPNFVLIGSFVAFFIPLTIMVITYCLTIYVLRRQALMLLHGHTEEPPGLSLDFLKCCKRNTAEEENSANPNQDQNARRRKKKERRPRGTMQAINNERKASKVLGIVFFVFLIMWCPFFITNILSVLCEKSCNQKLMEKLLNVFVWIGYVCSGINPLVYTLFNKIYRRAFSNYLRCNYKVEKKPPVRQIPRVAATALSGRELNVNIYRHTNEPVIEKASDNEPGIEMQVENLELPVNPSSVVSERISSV
The assay can be described thus: Selectivity of binding to the human 5-HT6 receptor relative to the human 5-HT2c receptor. Particulars: 5-HT6 vs 5-HT2c. On the procedure: (§1) All of the compounds of the invention were evaluated using cell types receptive specifically to the 5-HT6 receptor (for cloning and characterization of the human 5-HT6 receptor see Kohen, et al. J. Neurochemistry, 66, 1996: 47-56). […] After a 60 minute incubation at 37° C., the incubation was terminated by vacuum filtration. The filters were washed with buffer and the filters were counted for radioactivity using liquid scintillation spectrometry. The affinity of the test compound for the 5-HT6 receptor was determined by computer-assisted analysis of the data and determining the amount of the compound necessary to inhibit 50% of the binding of the radioligand to the receptor. Concentrations ranging from 10^-11 M to 10^-5 M of the test compound were evaluated.

Assay [2] addresses T1, human 5-HT6 receptor. The assay can be described thus: Binding affinity for the 5-HT6 receptor (3H-LSD radioligand binding, membranes of cells expressing the receptor). More on the design: expressed in transfected cells. The settings on record: 60 minute incubation at 37° C. As for the experimental part: as §1

T1 sequence (P50406 whole entry): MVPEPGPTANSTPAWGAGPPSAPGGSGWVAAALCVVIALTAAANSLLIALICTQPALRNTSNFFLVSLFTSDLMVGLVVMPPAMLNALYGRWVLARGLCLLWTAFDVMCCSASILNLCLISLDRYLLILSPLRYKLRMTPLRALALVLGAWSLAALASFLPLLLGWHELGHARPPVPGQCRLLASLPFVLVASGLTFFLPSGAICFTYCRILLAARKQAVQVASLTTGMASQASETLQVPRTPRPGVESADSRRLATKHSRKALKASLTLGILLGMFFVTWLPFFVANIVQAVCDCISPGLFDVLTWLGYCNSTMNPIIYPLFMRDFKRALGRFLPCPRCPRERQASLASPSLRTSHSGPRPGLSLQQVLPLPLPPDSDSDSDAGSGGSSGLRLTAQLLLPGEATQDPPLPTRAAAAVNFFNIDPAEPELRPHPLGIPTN

As for `CN1CC=C(c2cn(S(=O)(=O)c3ccc(F)cc3)c3ccc(F)cc23)CC1` [6 cc], the EC50 at human 5-HT6 receptor [1] (read-out: EC50, concentration causing 50% inhibition of the serotonin-stimulated cAMP response, 1 μM serotonin, 30 min) worked out at 10 nM.

`CN1CCC(c2c[nH]c3cc(Cl)ccc23)CC1` [Example 5b, 6-Chloro-3-(1-methyl-4-piperidinyl)-1H-indole]: the EC50 on human 5-HT6 receptor [1] (1 μM serotonin, 30 min, read-out: EC50, concentration causing 50% inhibition of the serotonin-stimulated cAMP response) turned out to be 1900 nM.

Take `Cc1ccc(S(=O)(=O)n2cc(C3=CCN(C)CC3)c3cc(F)ccc32)cc1` [Example 6b, 5-Fluoro-1-(4-methylphenylsulfonyl)-3-(1-methyl-1,2,3,6-tetrahydro-4-pyridinyl)indole]: on human 5-HT7 receptor, the “greater affinity for human 5-HT6 receptor relative to human 5-HT7 receptor” value is at least 60 fold. Further, the “greater affinity for human 5-HT6 receptor relative to human 5-HT2c receptor” value on human 5-HT2c receptor was at least 60 fold.

`CN1CC=C(c2cn(C(=O)c3ccccc3Cl)c3ccc(F)cc23)CC1` [Example 6c, 1-(2-Chlorobenzoyl)-5-fluoro-3-(1-methyl-1,2,3,6-tetrahydro-4-pyridinyl)indole] came in with a Ki at human 5-HT6 receptor [2] (Ki) of at most 5 nM.

`CN1CC=C(c2cn(C(=O)c3c(Cl)cccc3Cl)c3ccc(F)cc23)CC1` [Example 6f, 1-(2,6-Dichlorobenzoyl)-5-fluoro-3-(1-methyl-1,2,3,6-tetrahydro-4-pyridinyl)indole] registered a Ki on human 5-HT6 receptor [2] (Ki) of at most 5 nM.

`CN1CC=C(c2cn(C(=O)c3ccccc3)c3ccc(Br)cc23)CC1` [Example 6g, 1-Benzoyl-5-bromo-3-(1-methyl-1,2,3,6-tetrahydro-4-pyridinyl)indole]: the Ki on human 5-HT6 receptor [2] (Ki) is at most 50 nM. For the same molecule, the “greater affinity for human 5-HT6 receptor relative to human 5-HT7 receptor” value at human 5-HT7 receptor is at least 60 fold. The “greater affinity for human 5-HT6 receptor relative to human 5-HT2c receptor” value on human 5-HT2c receptor is given as at least 60 fold.

For the molecule `CN1CC=C(c2cn(C(=O)c3ccccc3Cl)c3ccc(OC4CCCCC4)cc23)CC1` [Example 7aaa, 1-(2-Chlorobenzoyl)-5-cyclohexyloxy-3-(1-methyl-1,2,3,6-tetrahydro-4-pyridinyl) indole], the Ki at human 5-HT6 receptor [2] (Ki) was at most 5 nM.

As for `CN1CC=C(c2cn(S(=O)(=O)c3ccccc3)c3c(F)cc(F)cc23)CC1` [Example 7aj, 5,7-Difluoro-3-(1-methyl-1,2,3,6-tetrahydro-4-pyridinyl)-1-phenylsulfonylindole], the Ki at human 5-HT6 receptor [2] (Ki) was at most 5 nM.

As for `CN1CC=C(c2cn(S(=O)(=O)c3ccc(Br)cc3)c3c(F)cc(F)cc23)CC1` [Example 7am, 1-(4-Bromophenylsulfonyl)-5,7-difluoro-3-(1-methyl-1,2,3,6-tetrahydro-4-pyridinyl)indole], at human 5-HT6 receptor [2] (Ki), the Ki was at most 5 nM.

With `CN1CC=C(c2cn(S(=O)(=O)c3ccc4ccccc4c3)c3c(F)cc(F)cc23)CC1` [Example 7ap, 5,7-Difluoro-3-(1-methyl-1,2,3,6-tetrahydro-4-pyridinyl)-1-(2-naphthylsulfonyl)indole], the Ki on human 5-HT6 receptor [2] (Ki) is at most 5 nM.

`CN1CC=C(c2cn(C(=O)c3ccc(F)cc3)c3c(F)cc(F)cc23)CC1` [Example 7ar, 5,7-Difluoro-1-(4-fluorobenzoyl)-3-(1-methyl-1,2,3,6-tetrahydro-4-pyridinyl)indole] came in with a Ki on human 5-HT6 receptor [2] (Ki) of at most 5 nM.

`CN1CC=C(c2cn(C(=O)c3cc(Cl)ccc3Cl)c3c(F)cc(F)cc23)CC1` [Example 7as, 1-(2,5-Dichlorobenzoyl)-5,7-difluoro-3-(1-methyl-1,2,3,6-tetrahydro-4-pyridinyl)indole] displayed a Ki on human 5-HT6 receptor [2] (Ki) of at most 50 nM.

`CN1CC=C(c2cn(S(=O)(=O)c3ccccc3Br)c3ccc(F)cc23)CC1` [Example 7bb, 1-(2-Bromophenylsulfonyl)-5-fluoro-3-(1-methyl-1,2,3,6-tetrahydro-4-pyridinyl)indole]: the “greater affinity for human 5-HT6 receptor relative to human 5-HT7 receptor” value on human 5-HT7 receptor is recorded as at least 60 fold. For the same molecule, the “greater affinity for human 5-HT6 receptor relative to human 5-HT2c receptor” value at human 5-HT2c receptor is given as at least 60 fold.

Consider `CN1CC=C(c2cn(S(=O)(=O)c3ccc(F)cc3)c3ccc(F)cc23)CC1` [Example 7cc, 1-(4-Fluorophenylsulfonyl)-5-fluoro-3-(1-methyl-1,2,3,6-tetrahydro-4-pyridinyl)indole], for which, on human 5-HT6 receptor [2] (Ki), the Ki was at most 5 nM.

For `CN1CC=C(c2cn(S(=O)(=O)c3ccc(Cl)cc3)c3ccc(F)cc23)CC1` [Example 7dd, 1-(4-Chlorophenylsulfonyl)-5-fluoro-3-(1-methyl-1,2,3,6-tetrahydro-4-pyridinyl)indole], the “greater affinity for human 5-HT6 receptor relative to human 5-HT7 receptor” value on human 5-HT7 receptor is on record as at least 60 fold. For the same molecule, the “greater affinity for human 5-HT6 receptor relative to human 5-HT2c receptor” value on human 5-HT2c receptor is recorded as at least 60 fold.

For the molecule `CN1CC=C(c2cn(S(=O)(=O)c3cccc4ccccc34)c3ccc(F)cc23)CC1` [Example 7gg, 5-Fluoro-3-(1-methyl-1,2,3,6-tetrahydro-4-pyridinyl)-1-(1-naphthylsulfonyl)indole], the Ki on human 5-HT6 receptor [2] (Ki) was at most 50 nM.

Consider `CN1CC=C(c2cn(S(=O)(=O)c3ccc4ccccc4c3)c3ccc(F)cc23)CC1` [Example 7hh, 5-Fluoro-3-(1-methyl-1,2,3,6-tetrahydro-4-pyridinyl)-1-(2-naphthylsulfonyl)indole], for which the “greater affinity for human 5-HT6 receptor relative to human 5-HT7 receptor” value on human 5-HT7 receptor is recorded as at least 60 fold. Besides, the “greater affinity for human 5-HT6 receptor relative to human 5-HT2c receptor” value on human 5-HT2c receptor was at least 60 fold.

With `Cc1ccc(S(=O)(=O)n2cc(C3=CCN(C)CC3)c3cc(OC4CCCCC4)ccc32)cc1` [Example 7i, 5-Cyclohexyloxy-1-(4-methylphenylsulfonyl)-3-(1-methyl-1,2,3,6-tetrahydro-4-pyridinyl)indole], the “greater affinity for human 5-HT6 receptor relative to human 5-HT7 receptor” value on human 5-HT7 receptor is at least 60 fold. Further, the “greater affinity for human 5-HT6 receptor relative to human 5-HT2c receptor” value on human 5-HT2c receptor was at least 60 fold.

Regarding `CN1CC=C(c2cn(S(=O)(=O)c3ccccc3)c3ccc(F)cc23)CC1` [Example 7ii, 5-Fluoro-3-(1-methyl-1,2,3,6-tetrahydro-4-pyridinyl)-1-phenylsulfonylindole], the Ki at human 5-HT6 receptor [2] (Ki) is at most 5 nM.

As for `CN1CC=C(c2cn(S(=O)(=O)c3ccccc3)c3cc(Br)ccc23)CC1` [Example 7j, 6-Bromo-3-(1-methyl-1,2,3,6-tetrahydro-4-pyridinyl)-1-phenylsulfonylindole], at human 5-HT6 receptor [2] (Ki), the Ki was at most 50 nM.

Take `CN1CC=C(c2cn(S(=O)(=O)c3ccccc3)c3ccc(Cl)cc23)CC1` [Example 7jj, 5-Chloro-3-(1-methyl-1,2,3,6-tetrahydro-4-pyridinyl)-1-phenylsulfonylindole]: on human 5-HT6 receptor [2] (Ki), the Ki is at most 5 nM.

`CN1CC=C(c2cn(C(=O)c3ccccc3)c3ccc(Cl)cc23)CC1` [Example 7jjj, 1-Benzoyl-5-chloro-3-(1-methyl-1,2,3,6-tetrahydro-4-pyridinyl)indole hydrochloride] gave a Ki at human 5-HT6 receptor [2] (Ki) of at most 50 nM.

The molecule `CN1CC=C(c2cn(S(=O)(=O)c3ccccc3)c3ccc(OC4CCCCC4)cc23)CC1` [Example 7m, 5-Cyclohexyloxy-3-(1-methyl-1,2,3,6-tetrahydro-4-pyridinyl)-1-phenylsulfonylindole] gave a Ki on human 5-HT6 receptor [2] (Ki) of at most 50 nM.

In the case of `CN1CC=C(c2cn(C(=O)c3c(Cl)cccc3Cl)c3ccc(C(F)(F)F)cc23)CC1` [Example 7qqq, 1-(2,6-Dichlorobenzoyl)-3-(1-methyl-1,2,3,6-tetrahydro-4-pyridinyl)-5-trifluoromethyl-indole], the Ki on human 5-HT6 receptor [2] (Ki) was at most 50 nM.

As for `CN1CC=C(c2cn(S(=O)(=O)c3ccccc3)c3ccc(C(F)(F)F)cc23)CC1` [Example 7rr, 3-(1-Methyl-1,2,3,6-tetrahydro-4-pyridinyl)-1-phenylsulfonyl-5-trifluoromethylindole hydrochloride], at human 5-HT6 receptor [2] (Ki), the Ki is at most 5 nM.

As for `CN1CCC(c2cn(S(=O)(=O)c3ccccc3)c3ccccc23)CC1` [Example 7uuu, 3-(1-Methyl-4-piperidinyl)-1-phenylsulfonylindole], on human 5-HT6 receptor [2] (read-out: Ki), the Ki is at most 50 nM.

At human 5-HT6 receptor [2] (Ki), `COc1ccc(S(=O)(=O)n2cc(C3=CCN(C)CC3)c3cc(C(F)(F)F)ccc32)cc1` [Example 7vv, 1-(4-Methoxyphenylsulfonyl)-3-(1-methyl-1,2,3,6-tetrahydro-4-pyridinyl)-5-trifluoromethylindole hydrochloride] gave a Ki of at most 50 nM.
